Measurements published in patent publication US12486229B2, “Indole derivative and application thereof” (SHANGHAI MEDICILON INC., priority 2020, dated 2025).

Legend:
S1P1 = biological target: T1, S1P1 (Homo sapiens, UniProt P21453); experiment: S1P1 overexpression cell activity by β-arrestin assay (U2OS-EDG1); assay type: cell-based; conditions: U2OS-EDG1 cells
T1 construct: host or cells: U2OS (human osteosarcoma) cell line, U2OS-EDG1
Procedure: The following experiments were conducted to detect the activity of the compound on S1P1 overexpression cells by β-arrestin assay. [table] [table] 3. Experimental Steps Day 1: Cell Seeding Plate and Compound Treatment • (1) Firstly, the compound was diluted by a 4-fold gradient into 10 concentration points from the concentration of 10 μM in the culture plate by using NL fluid transfer system, with 2 replicates at each concentration point. • (2) Cells were resuspended by using FreeStyle™ expression medium, and the cell density was adjusted to 7,500 cells per 40 μL suspension. The samples with test concentration were added into the well of the cell culture plate, and 40 μL cell suspension was added into the corresponding well. • (3) The above cell plates were incubated overnight in a CO2 incubator with 5% (volume fraction) at 37° C. Day 2: Detection and Data Analysis • (1) The buffer solution was prepared according to the preparation method in the instructions of LiveBLAser™-fluorescence resonance energy transfer B/G loading kit. • (2) 8 μL detection reagent was added to each well, which were shaken and mixed evenly for 1 minute, centrifugated at 1,000 rpm for 10 seconds, and incubated at 23° C. in dark for 2 hours. • 3) Detection was performed by multimode reader. • 4) The PrismDemo software was used to analyze the data and fit the curve. 4. Experimental Results

[1] = tested on: TNBS induced ulcerative colitis in rats; experiment: TNBS induced ulcerative colitis in rats; assay type: in vivo, rat; conditions: for Colon length / Colon weight / Colon weight/colon length / Ulcer area: day 8; for General anatomical view of colon, from excellent to poor: 7 days administration, SASP 360, Example 3 and Etrasimod 3, Ozanimod 10 mg/kg; for Drug efficacy intensity (colon weight): oral gavage for 7 consecutive days, doses as given in ranking
Procedure: Preparation of molding agent: 5 mL TNBS and 8.953 mL anhydrous ethanol and 26.741 sterilized water for injection. • TNBS comes from Dalian Meilun Biotechnology Co., Ltd. • Source of SPF male SD rats: Shanghai Slake Experimental Animal Co., Ltd. • Animal age at the beginning of the experiment: 8 to 10 weeks; • Animal weight at the beginning of the experiment: about 250 g; • Adaptation time: 5 to 7 days; • Animals were fasted (only water) for 24 hours. After inhalation anesthesia with isoflurane, all rats were perfused with 0.5 mL TNBS ethanol solution per rat (18 mg TNBS/rat) via rectum with latex hose, with the length of the hose entering the rectum of about 8 cm. After withdrawing the hose, the rats remained under isoflurane anesthesia, and kept in the inclined state of hip elevation for 15 minutes.
The rats after modeling were randomly divided into 5 groups: model group, positive control group using drug sulfasalazine (SASP, 360 mg/kg), test substance group using the compound of Example 3 (3 mg/kg), test substance group using Etrasimod (3 mg/kg), test substance group using Ozanimod (10 mg/kg).
At 3 hours after modeling, the animals in each group were administrated with medicine solution by oral gavage (Table 1), 5 mL/kg body weight (10 mL/kg in sulfasalazine group), once a day, for 7 consecutive days, and the feces of the animals and whether there is death were observed every day. On the 8th day, the animals were killed under CO2 overdose anesthesia followed by being dissected, the entire colon tissue was extracted, the contents of the colon were cleaned after longitudinal dissection along the mesenteric side, the colon was weighed and measured for its length, the area of the ulcer was measured, and the general situation was observed and photos were taken. Finally, the colon was fixed in 10% formalin, and H&E staining and histopathological analysis (inflammation, goblet cells, lesion depth, ulcer degree, crypt abscess) were performed.
Wherein, the compound of Example 3 of the invention, purity: 99.74%. • Etrasimod, prepared according to the literature method (the second isomer of Example 1.29 in WO2010/011316A1), purity: 98.47%. • Ozanimod, prepared according to the literature method (compound 86 in WO2011/060392A1), purity: 99.78%. • Sulfasalazine enteric-coated tablets, produced by Shanghai Fuda Pharmaceutical Co., Ltd., 0.25 g/tablet. Enteric coated tablets show yellow to brownish yellow after the coating is removed. • Solutol: Beijing Fengli Jingqiu Pharmaceutical Co., Ltd. • Solvent preparation: • DMSO, Solutol and 0.9% sodium chloride solution were mixed according to the volume ratio of 5:10:85 to prepare the solvent.
Preparation of compound of Example 3 and Etrasimod solution: 27 mg of test substances were taken respectively and dissolved in 45 mL of solvent to obtain corresponding test substance solution.
Ozanimod: 90 mg Ozanimod was dissolved in 45 mL solvent to obtain Ozanimod solution.
Preparation of SASP solution: six sulfasalazine enteric-coated tablets after grinding were added to 41.7 mL 0.5% CMC-Na, and then dissolved by ultrasonic to obtain SASP solution.
Due to the excipient factor of SASP drug preparation, the concentration should not be too high when suspended in 0.5% CMC-Na, otherwise the suspension was uneven and the mobility was poor, so the dose volume of SASP was doubled compared with the compound of Example 3 and Etrasimod.

[2] = tested on: DSS induced ulcerative colitis in mice; experiment: DSS induced ulcerative colitis in mice; assay type: in vivo; design: key to Total stool scores: sum of shape (1-3) and bleeding (1-3) levels; normal = 1 each; conditions: for Weight / Total stool scores: 20 mg/kg oral gavage once a day
Procedure: Molecular weight of DSS dextran sodium sulfate: 36,000 to 50,000, From MP Biomedical Company.
Preparation of molding agent: preparation of 3.5% DSS: 49 g DSS plus 1,400 mL high-temperature sterilized water.
Source of SPF male C57BL/6 mice: Beijing Weitong Lihua Experimental Animal Technology Co., Ltd. • Animal age at the beginning of the experiment: 6 to 8 weeks; • Animal weight at the beginning of the experiment: 22 to 25 g; • Adaptation time: 3 to 5 days;
The mice were divided into groups according to their weight, 10 mice in each group. The mice were administrated once a day by gavage (or blank) according to the following Table 4.
Animals were given 3.5% DSS solution for free drinking water modeling (the day of modeling was recorded as day 1), and the modeling agent was replaced once every two days for 7 consecutive days, and then (day 8) 3.5% DSS was replaced with ordinary drinking water for another 1 day.
• Preparation of solvent 1: 0.66 mL DMSO, 1.32 mL Solutol and 11.22 mL Saline were mixed to prepare 13.2 mL of solvent 1; • Preparation of solvent 2: 0.3 mL DMSO, 0.6 mL Solutol and 5.1 mL Saline were mixed to prepare 6 mL of solvent 2; • Preparation of solution of compound of Example 3: 39.6 mg of compound of Example 3 was dissolved in 13.2 mL of solvent 1 to obtain the solution of compound 1 of Example 3, the solution 1 of compound of Example 3 was diluted with solvent 1 to prepare the solution of compound of Example 3 with concentrations of 2 mg/mL, 1 mg/mL, and 0.6 mg/mL; • Etrasimod solution: 6 mg of Etrasimod was dissolve in 6 mL of solvent 2 to obtain Etrasimod solution; • Ozanimod solution: 12 mg of […] was dissolved in 6 mL solvent 2 to obtain Ozanimod solution; • Note: Prepare once every two days, and store in refrigerator at 4° C.
Wherein, the purity of compound of Example 3 was 99.74%, Ozanimod and Etrasimod were prepared by the method described in Example 8, and the purities were 99.78% and 98.47% respectively.
The mouse stool was observed on its shape, bleeding condition every two days, and scored. Scoring criteria for stool condition: shape: normal (level 1), soft stool (level 2), and loose stool (level 3); traits: normal (level 1), faint redness (level 2), and bloody stool visible to the unaided eye (level 3).
After the last administration (8 consecutive days), the animals were dissected on the next day (day 9), the colon was separated, the whole colon was photographed, and the colon length was measured. Then the colon was cut longitudinally along the mesenteric side to remove the contents, which was weighed and observed on the integrity of the colonic mucosa. The colon was then fixed in 10% formalin.

[3] = 360 mg/kg oral gavage once a day for 7 days
[4] = 10 mg/kg oral gavage once a day for 7 days

T1 sequence (P21453 whole entry): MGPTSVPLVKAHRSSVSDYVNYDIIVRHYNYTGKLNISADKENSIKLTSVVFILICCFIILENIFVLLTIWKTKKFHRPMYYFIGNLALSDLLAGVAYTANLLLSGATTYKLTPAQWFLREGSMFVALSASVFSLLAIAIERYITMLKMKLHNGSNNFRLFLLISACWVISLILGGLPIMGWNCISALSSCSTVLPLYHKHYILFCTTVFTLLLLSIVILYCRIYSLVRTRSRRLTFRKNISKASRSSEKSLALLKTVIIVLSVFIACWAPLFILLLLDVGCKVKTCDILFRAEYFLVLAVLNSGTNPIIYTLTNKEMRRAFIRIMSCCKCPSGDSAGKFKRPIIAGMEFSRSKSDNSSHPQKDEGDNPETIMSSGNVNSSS

Which IC50 (S1P1) does the source give for Cc1cc(OCc2ccc(C3CCCC3)c(C(F)(F)F)c2)cc2ccn(CCC(=O)O)c12 [Compound of Example 1, 3-(5-((4-cyclopentyl-3-(trifluoromethyl)benzyl)oxy)-7-methyl-1H-indole-1-yl)propionic acid] here?
Its IC50 is 0.51 nM.

For O=C(O)c1cc(/N=N/c2ccc(S(=O)(=O)Nc3ccccn3)cc2)ccc1O [SASP, Sulfasalazine], which Colon length [1, 3] is on record?
Its Colon length is 13.89 ± 0.45 cm.

And the Colon weight [1, 3]?
The Colon weight was 3.35 ± 0.74 g.

What about the Colon weight/colon length [1, 3] of the same compound?
The Colon weight/colon length was 0.24 g/cm.

What about the Ulcer area [1, 3] of the same compound?
The Ulcer area was 320.23 ± 167.1 mm^2.

What about the “General anatomical view of colon, from excellent to poor” value [1] of the same compound?
Its value is “group using compound of Example 3>group using sulfasalazine>group using Etrasimod>group using Ozanimod”.

What about the Weight ([1]; Day 1, 360 mg/kg oral gavage once a day) of the same compound?
The Weight was 250.1 ± 0.48 g.

What about the Weight ([1]; Day 2, 360 mg/kg oral gavage once a day) of the same compound?
Its Weight is 226.4 ± 0.34 g.

What about the Weight ([1]; Day 3, 360 mg/kg oral gavage once a day) of the same compound?
Its Weight is 227.6 ± 1.13 g.

And the Weight ([1]; Day 4, 360 mg/kg oral gavage once a day)?
Its Weight is 231.8 ± 1.59 g.

And the Weight ([1]; Day 5, 360 mg/kg oral gavage once a day)?
The Weight was 238.6 ± 1.83 g.

And the Weight ([1]; Day 6, 360 mg/kg oral gavage once a day)?
The Weight was 247.3 ± 1.91 g.

And the Weight ([1]; Day 7, 360 mg/kg oral gavage once a day)?
The Weight was 255 ± 2.01 g.

And the Weight ([1]; Day 8, 360 mg/kg oral gavage once a day)?
The Weight was 267.9 ± 1.9 g.

What about the “Weight course compared with model group” value ([1]; SASP 360 mg/kg, Example 3 and Etrasimod 3 mg/kg, oral once a day) of the same compound?
Its value is “a certain tendency to inhibit the weight loss”.

What about the “Drug efficacy intensity (colon weight)” value [1] of the same compound?
Its value is “group using the compound of Example 3 (3 mg/kg)>group using Etrasimod (3 mg/kg)>group using sulfasalazine (360 mg/kg)>model group>group using Ozanimod (10 mg/kg)”.

O=C(O)CCCn1ccc2cc(OCc3ccc(C4CCCC4)c(C(F)(F)F)c3)cc(Cl)c21 [Compound of Example 5, 4-(7-chlorine-5-((4-cyclopentyl-3-(trifluoromethyl)benzyl)oxy)-1H-indole-1-yl)butyric acid] was tested. Which IC50 (S1P1) did it give?
The IC50 was 0.251 nM.

CCc1cc(OCc2ccc(C3CCCC3)c(C(F)(F)F)c2)cc2ccn(CCC(=O)O)c12 [Compound of Example 2, 3-(5-((4-cyclopentyl-3-(trifluoromethyl)benzyl)oxy)-7-ethyl-1H-indole-1-yl)propionic acid] was tested. Which IC50 (S1P1) did it give?
The IC50 was 3.27 nM.

For O=C(O)Cn1ccc2cc(OCc3ccc(C4CCCC4)c(C(F)(F)F)c3)ccc21 [Compound of Example 6, 2-(5-((4-cyclopentyl-3-(trifluoromethyl)benzyl)oxy)-1H-indole-1-yl)acetic acid], which IC50 (S1P1) is on record?
The IC50 was 175 nM.

What does the source list for CC(C)Oc1ccc(-c2nc(-c3cccc4c3CC[C@@H]4NCCO)no2)cc1C#N [Ozanimod, reference compound]?
Colon length compared with model group ([2]; 20 mg/kg): longer than that of the model group; Colon weight ([2]; 20 mg/kg oral gavage once a day for 8 days, day 9): 0.157 ± 0.01 g; Effect on blood stool and loose stool compared with model group ([2]; 20 mg/kg, day 9): had not significant improvement; Weight ([2]; Day 1): 21.2 ± 0.19 g; Weight ([2]; Day 2): 21.7 ± 0.25 g; Weight ([2]; Day 3): 21.7 ± 0.26 g; Weight ([2]; Day 4): 21.9 ± 0.33 g; Weight ([2]; Day 5): 21.5 ± 0.27 g; Weight ([2]; Day 6): 20.6 ± 0.54^ g; Total stool scores ([2]; Day 7): 5.9 ± 0.11; Weight ([2]; Day 7): 18.9 ± 0.54 g; Total stool scores ([2]; Day 8): 6.0 ± 0; Weight ([2]; Day 8): 18.0 ± 0.5 g; Total stool scores ([2]; Day 9): 5.1 ± 0; Weight ([2]; Day 9): 16.5 ± 0.49 g; Number of dead animals ([2]; by the end of the test period, 10 mice per group, doses as Table 4 (Ozanimod 20 mg/kg)): 3; Colon length [1, 4]: 13.09 ± 0.5 cm; Colon weight [1, 4]: 3.30 ± 0.53 g; Colon weight/colon length [1, 4]: 0.25 g/cm; Ulcer area [1, 4]: 498.04 ± 202.49 mm^2; General anatomical view of colon, from excellent to poor [1]: group using compound of Example 3>group using sulfasalazine>group using Etrasimod>group using Ozanimod; Weight ([1]; Day 1, 10 mg/kg oral gavage once a day): 247.1 ± 0.64 g; Weight ([1]; Day 2, 10 mg/kg oral gavage once a day): 225.6 ± 0.65 g; Weight ([1]; Day 3, 10 mg/kg oral gavage once a day): 225.1 ± 0.86 g; Weight ([1]; Day 4, 10 mg/kg oral gavage once a day): 225.9 ± 1.39 g; Weight ([1]; Day 5, 10 mg/kg oral gavage once a day): 231.3 ± 1.63 g; Weight ([1]; Day 6, 10 mg/kg oral gavage once a day): 239 ± 1.72 g; Weight ([1]; Day 7, 10 mg/kg oral gavage once a day): 247.8 ± 1.74 g; Weight ([1]; Day 8, 10 mg/kg oral gavage once a day): 262.8 ± 1.22 g; Drug efficacy intensity (colon weight) [1]: group using the compound of Example 3 (3 mg/kg)>group using Etrasimod (3 mg/kg)>group using sulfasalazine (360 mg/kg)>model group>group using Ozanimod (10 mg/kg)

Which IC50 (S1P1) does the source give for Cc1cc(OCc2ccc(C3CCCC3)c(C(F)(F)F)c2)cc2ccn(CCCC(=O)O)c12 [Compound of Example 4, 4-(5-((4-cyclopentyl-3-(trifluoromethyl)benzyl)oxy)-7-methyl-1H-indole-1-yl)butyric acid] here?
The IC50 was 1.73 nM.
